Data on 14 compounds can be found in patent US10508120B2, “TYK2 inhibitors and uses thereof” (Nimbus Lakshmi, Inc., priority 2017, dated 2019).

SMILES strings stand for the structures.

Test [1] deals with human TYK2 (JH2domain-pseudokinase) (Homo sapiens (Human), UniProt P29597). Description: TYK2 JH2 Domain Binding Assay (KINOMEscan). Summed up: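 Kds, run in duplicate, came from Hill fits (slope fixed at −1) of an 11-point 3-fold dilution series starting at 30,000 nM. Bead-retained TYK2 JH2 (aa G556–D888)–NFkB DBD fusion, DNA-tagged and expressed in HEK293 cells, was read by qPCR after 1 h room-temperature binding in 0.9% DMSO.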
human TYK2 (JH2domain-pseudokinase), sequence (P29597 556-888): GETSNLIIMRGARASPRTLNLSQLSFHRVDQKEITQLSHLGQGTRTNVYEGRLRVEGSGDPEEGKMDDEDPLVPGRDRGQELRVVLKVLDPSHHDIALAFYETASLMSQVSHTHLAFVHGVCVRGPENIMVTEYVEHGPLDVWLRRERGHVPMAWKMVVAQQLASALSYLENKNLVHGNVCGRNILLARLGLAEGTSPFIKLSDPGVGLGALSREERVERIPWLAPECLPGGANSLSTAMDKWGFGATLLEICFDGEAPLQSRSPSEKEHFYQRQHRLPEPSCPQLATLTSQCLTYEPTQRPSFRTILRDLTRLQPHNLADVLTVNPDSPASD

The target of the next test is Tyk2 kinase domain (DH1) (Homo sapiens (Human), UniProt P29597). Description: Tyk2 Radioactive Kinase Assay. The settings on record: compound at 10 μM; ATP 10 μM; read-out: Tyk2 JH1% Inhibition @ 10 μM. Format: biochemical. A digest of the protocol: (§1)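 Read-out is percent inhibition from a radioactive kinase reaction, measured with compound at 10 μM.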
Tyk2 kinase domain (DH1), sequence (P29597 897-1176): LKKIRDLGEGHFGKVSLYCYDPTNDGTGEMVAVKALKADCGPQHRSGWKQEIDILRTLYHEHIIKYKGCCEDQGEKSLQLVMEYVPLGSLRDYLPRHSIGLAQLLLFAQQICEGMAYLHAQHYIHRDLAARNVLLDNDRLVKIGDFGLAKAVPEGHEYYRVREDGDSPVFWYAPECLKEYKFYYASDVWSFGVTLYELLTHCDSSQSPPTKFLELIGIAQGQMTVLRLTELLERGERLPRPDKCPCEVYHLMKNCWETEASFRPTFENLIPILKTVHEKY
Another test deals with JAK2 kinase domain (JH1) (Homo sapiens (Human), UniProt O60674). Description: JAK2 Radioactive Kinase Assay. Format: biochemical. Particulars: compound at 10 μM; ATP 10 μM; read-out: JAK2 JH1% Inhibition @ 10 μM. Summed up:
as §1

Test [2] deals with Tyk2/JAK2 (heterodimeric complex) (Homo sapiens (Human), UniProt P29597). Description: IL-12 Induced pSTAT4 in Human PBMC. Type of test: cell-based. Particulars: 1.7 ng/mL IL-12. From the text: The IL-12 Induced pSTAT4 assay evaluates the inhibition of IL-12 induced STAT4 phophorylation mediated by Tyk2/JAK2 (heterodimeric complex).
Tyk2/JAK2 (heterodimeric complex), sequence (P29597 whole entry, other chains not shown): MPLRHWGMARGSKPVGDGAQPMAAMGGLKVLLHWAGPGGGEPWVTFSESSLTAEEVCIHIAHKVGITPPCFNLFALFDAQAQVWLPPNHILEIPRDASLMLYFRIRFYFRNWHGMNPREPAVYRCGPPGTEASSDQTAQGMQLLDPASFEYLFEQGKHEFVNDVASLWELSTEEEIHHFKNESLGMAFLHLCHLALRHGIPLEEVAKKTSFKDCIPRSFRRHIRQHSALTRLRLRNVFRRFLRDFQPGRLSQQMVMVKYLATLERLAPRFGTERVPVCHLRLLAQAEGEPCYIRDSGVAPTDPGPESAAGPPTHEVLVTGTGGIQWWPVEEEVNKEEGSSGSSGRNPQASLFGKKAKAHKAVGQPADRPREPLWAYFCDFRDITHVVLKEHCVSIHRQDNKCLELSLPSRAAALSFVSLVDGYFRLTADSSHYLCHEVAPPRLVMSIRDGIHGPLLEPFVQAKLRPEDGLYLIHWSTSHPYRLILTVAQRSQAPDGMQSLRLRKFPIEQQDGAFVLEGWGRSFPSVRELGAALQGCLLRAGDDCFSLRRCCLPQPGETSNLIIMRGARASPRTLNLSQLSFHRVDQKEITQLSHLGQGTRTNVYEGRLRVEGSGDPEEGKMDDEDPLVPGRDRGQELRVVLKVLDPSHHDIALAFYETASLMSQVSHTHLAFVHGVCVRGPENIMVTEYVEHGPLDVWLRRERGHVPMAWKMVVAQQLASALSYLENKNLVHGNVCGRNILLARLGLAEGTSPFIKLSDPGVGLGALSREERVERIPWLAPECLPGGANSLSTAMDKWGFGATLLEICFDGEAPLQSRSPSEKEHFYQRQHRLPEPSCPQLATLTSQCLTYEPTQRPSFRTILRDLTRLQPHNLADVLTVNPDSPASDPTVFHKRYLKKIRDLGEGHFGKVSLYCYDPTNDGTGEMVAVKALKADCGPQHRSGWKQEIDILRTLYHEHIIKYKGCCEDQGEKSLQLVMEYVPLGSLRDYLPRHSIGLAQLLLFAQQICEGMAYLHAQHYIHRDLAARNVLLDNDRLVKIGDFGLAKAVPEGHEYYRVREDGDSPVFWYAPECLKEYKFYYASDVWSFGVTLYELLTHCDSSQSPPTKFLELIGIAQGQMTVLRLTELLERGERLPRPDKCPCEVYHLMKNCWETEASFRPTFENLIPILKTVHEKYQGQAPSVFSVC
The target in test [3] is JAK2/JAK2 homdimeric complex (Homo sapiens (Human), UniProt O60674). Nature of the test: GM-CSF Induced pSTAT5 in Human PBMC. Format: cell-based. The settings on record: GM-CSF 5 ng/mL for 20 minutes, pSTAT5 by MSD, read-out: PBMC_GMCSF_pSTAT5 IC50.
JAK2/JAK2 homdimeric complex, sequence (O60674 whole entry): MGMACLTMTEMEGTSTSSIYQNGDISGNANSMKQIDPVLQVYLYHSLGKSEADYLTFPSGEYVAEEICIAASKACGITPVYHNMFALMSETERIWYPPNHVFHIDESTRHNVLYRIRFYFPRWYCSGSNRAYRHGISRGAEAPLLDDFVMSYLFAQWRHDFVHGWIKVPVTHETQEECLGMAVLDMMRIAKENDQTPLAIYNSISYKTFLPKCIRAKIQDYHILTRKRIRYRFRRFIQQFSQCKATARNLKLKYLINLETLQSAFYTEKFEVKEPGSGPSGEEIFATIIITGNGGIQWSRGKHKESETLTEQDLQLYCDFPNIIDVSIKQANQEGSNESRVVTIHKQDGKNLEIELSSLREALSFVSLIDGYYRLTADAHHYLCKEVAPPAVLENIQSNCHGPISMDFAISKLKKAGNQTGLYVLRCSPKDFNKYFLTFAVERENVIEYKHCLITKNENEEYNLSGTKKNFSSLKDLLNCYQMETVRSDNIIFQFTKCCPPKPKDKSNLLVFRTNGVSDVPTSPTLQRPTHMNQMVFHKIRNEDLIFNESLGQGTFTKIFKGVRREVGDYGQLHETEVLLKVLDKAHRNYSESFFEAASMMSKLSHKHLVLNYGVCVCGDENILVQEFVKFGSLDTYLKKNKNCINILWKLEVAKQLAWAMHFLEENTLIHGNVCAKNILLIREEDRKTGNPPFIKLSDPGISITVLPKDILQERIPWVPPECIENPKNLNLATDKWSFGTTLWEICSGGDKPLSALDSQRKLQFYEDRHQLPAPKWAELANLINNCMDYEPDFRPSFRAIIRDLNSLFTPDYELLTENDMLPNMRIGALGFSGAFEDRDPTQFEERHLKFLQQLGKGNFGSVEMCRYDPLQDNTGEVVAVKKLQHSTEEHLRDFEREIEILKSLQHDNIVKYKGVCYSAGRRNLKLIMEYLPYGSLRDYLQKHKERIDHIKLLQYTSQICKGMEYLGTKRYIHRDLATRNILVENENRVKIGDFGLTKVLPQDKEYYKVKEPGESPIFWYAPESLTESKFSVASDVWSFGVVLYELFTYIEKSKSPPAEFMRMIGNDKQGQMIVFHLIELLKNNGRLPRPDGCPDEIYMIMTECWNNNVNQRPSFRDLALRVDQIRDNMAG
JAK2/JAK2 homdimeric complex, sequence (P32927 17-897 partner): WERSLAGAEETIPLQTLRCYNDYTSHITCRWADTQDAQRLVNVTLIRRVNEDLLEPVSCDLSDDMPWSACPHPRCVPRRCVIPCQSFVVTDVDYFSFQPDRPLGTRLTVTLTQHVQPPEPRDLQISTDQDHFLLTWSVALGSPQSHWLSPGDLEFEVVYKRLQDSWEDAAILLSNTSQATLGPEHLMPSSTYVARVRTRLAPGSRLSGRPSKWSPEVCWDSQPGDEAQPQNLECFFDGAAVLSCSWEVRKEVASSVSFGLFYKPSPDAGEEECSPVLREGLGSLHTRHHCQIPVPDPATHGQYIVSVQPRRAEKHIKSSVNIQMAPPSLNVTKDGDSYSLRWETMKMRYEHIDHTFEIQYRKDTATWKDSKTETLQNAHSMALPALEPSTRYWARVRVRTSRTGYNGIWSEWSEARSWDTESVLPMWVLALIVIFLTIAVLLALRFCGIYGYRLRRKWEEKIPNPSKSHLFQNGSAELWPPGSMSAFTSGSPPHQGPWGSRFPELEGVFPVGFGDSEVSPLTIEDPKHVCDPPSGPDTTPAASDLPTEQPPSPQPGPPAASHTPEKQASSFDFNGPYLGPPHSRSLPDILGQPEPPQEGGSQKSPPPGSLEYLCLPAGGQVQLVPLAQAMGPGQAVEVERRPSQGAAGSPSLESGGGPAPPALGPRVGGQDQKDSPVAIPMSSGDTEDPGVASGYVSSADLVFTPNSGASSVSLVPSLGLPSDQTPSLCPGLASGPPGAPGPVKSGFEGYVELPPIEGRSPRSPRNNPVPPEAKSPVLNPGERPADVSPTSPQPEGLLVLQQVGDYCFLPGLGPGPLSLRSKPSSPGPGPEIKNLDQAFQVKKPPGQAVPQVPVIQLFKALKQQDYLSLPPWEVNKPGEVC

JAK2 kinase domain (JH1), sequence (O60674 849-1124): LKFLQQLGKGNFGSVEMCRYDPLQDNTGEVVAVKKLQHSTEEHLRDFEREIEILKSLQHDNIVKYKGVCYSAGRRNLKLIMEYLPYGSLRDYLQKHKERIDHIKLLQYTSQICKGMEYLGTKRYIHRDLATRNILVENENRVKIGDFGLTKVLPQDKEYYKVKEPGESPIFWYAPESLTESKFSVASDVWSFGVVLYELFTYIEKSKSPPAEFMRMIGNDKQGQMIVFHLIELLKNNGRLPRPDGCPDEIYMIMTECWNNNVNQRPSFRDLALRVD

Usually Kd stands for the free concentration of one partner at which half of the binding sites on the other are occupied at equilibrium, for simple one-to-one binding. A higher Kd goes with weaker binding. The term inhibition denotes the relative decrease from the control value, in per cent. As usually defined, the IC50 is the concentration needed to halve the response being measured. The compound `CNc1cc(Nc2cccn([C@H]3CC[C@](C)(OC)CC3)c2=O)nc2c(C(=O)N[C@H]3C[C@H]3F)cnn12` [I-362] showed a Kd in test [1] of less than 0.2 nM. In addition, the inhibition at 10 µM on Tyk2 kinase domain (DH1) and on JAK2 kinase domain (JH1) was less than 50% in each case. Moreover, the IC50 in test [2] was less than 100 nM; in test [3] it was more than 50000 nM.
With `CNc1cc(Nc2cccnc2OC)nc2c(C(=O)N[C@H]3C[C@H]3F)cnn12` [I-110], the Kd in test [1] was less than 0.2 nM. Further, the inhibition at 10 µM on Tyk2 kinase domain (DH1) and on JAK2 kinase domain (JH1) was less than 50% each time. Further, the IC50 in test [2] was less than 100 nM; in test [3] it was more than 50000 nM.
`CNc1cc(Nc2cc(Cl)cn(-c3cnc(C(=O)N(C)C)cn3)c2=O)nc2c(C(=O)N[C@H]3C[C@H]3F)cnn12` [I-319] gave a Kd in test [1] of less than 0.2 nM. For the same compound, the inhibition at 10 µM at Tyk2 kinase domain (DH1) and on JAK2 kinase domain (JH1) was less than 50% in each case. Further, the IC50 in test [2] is less than 100 nM; in test [3] it was more than 2500 nM.
In test [1], `CNc1cc(Nc2cccn([C@H]3CC[C@H](OC)CC3)c2=O)nc2c(C(=O)N[C@H]3CC[C@@H]3O)cnn12` [I-540] came in with a Kd of less than 0.2 nM. In addition, the inhibition at 10 µM on Tyk2 kinase domain (DH1) and at JAK2 kinase domain (JH1) was less than 50% throughout. Also, the IC50 in test [2] is less than 100 nM; in test [3], more than 12500 nM.
In the case of `CNc1cc(Nc2cc(F)cn(-c3ccccn3)c2=O)nc2c(C(=O)NC3CCC3)cnn12` [I-193], the Kd in test [1] lay within 0.2 to 1 nM. For the same compound, the inhibition at 10 µM on Tyk2 kinase domain (DH1) and on JAK2 kinase domain (JH1) was less than 50% each time. Further, the IC50 is less than 100 nM in test [2] and more than 12500 nM in test [3].
Regarding `CNc1cc(Nc2cc(Cl)cn(-c3ccc(C4CC4)nn3)c2=O)nc2c(C(=O)N[C@H]3C[C@H]3F)cnn12` [I-334], the Kd in test [1] was less than 0.2 nM. Further, the inhibition at 10 µM at Tyk2 kinase domain (DH1) and at JAK2 kinase domain (JH1) was less than 50% throughout. In addition, the IC50 in test [2] is less than 100 nM; in test [3], more than 50000 nM.
On to `CNc1cc(Nc2cc(C)cnc2OCCOC)nc2c(C(=O)NC3CCC3)cnn12` [I-282], for which, in test [1], the Kd is 0.2 to 1 nM. The inhibition at 10 µM on Tyk2 kinase domain (DH1) and at JAK2 kinase domain (JH1) was less than 50% in each case. In addition, the values for the IC50 in test [2] and in test [3] were 100 to 500 nM and more than 2500 nM, respectively.
For `CNc1cc(Nc2cccn(C[C@@H]3CCCCO3)c2=O)nc2c(C(=O)NC3CC3)cnn12` [I-413], the Kd in test [1] was less than 0.2 nM. Moreover, the inhibition at 10 µM at Tyk2 kinase domain (DH1) and at JAK2 kinase domain (JH1) was less than 50% throughout. Moreover, the figures for the IC50 in test [2] and in test [3] were less than 100 nM and more than 50000 nM, respectively.
`[2H]C([2H])([2H])Oc1ncccc1Nc1cc(NC)n2ncc(C(=O)N[C@@H]3CC[C@@H]3O)c2n1` (stereo in doubt) [I-391, N-(2-hydroxycyclobutyl)-5-((2-(methoxy-d3)pyridin-3-yl)amino)-7-(methylamino)pyrazolo [1,5-a]pyrimidine-3-carboxamide] gave a Kd in test [1] of less than 0.2 nM. In addition, the inhibition at 10 µM on Tyk2 kinase domain (DH1) and at JAK2 kinase domain (JH1) was less than 50% throughout. For the same compound, the IC50 in test [2] was less than 100 nM; in test [3], more than 50000 nM.
Turning to `CNc1cc(Nc2cccn([C@H]3CC[C@H](OC)CC3)c2=O)nc2c(C(=O)NCC(C)(C)CO)cnn12` [I-544], in test [1], the Kd is less than 0.2 nM. Also, the inhibition at 10 µM on Tyk2 kinase domain (DH1) and on JAK2 kinase domain (JH1) was less than 50% throughout. For the same compound, the values for the IC50 in test [2] and in test [3] were less than 100 nM and more than 2500 nM, respectively.
Turning to `CNc1cc(Nc2cccn(-c3ccnc(C)n3)c2=O)nc2c(C(=O)N[C@@H]3C[C@@H]3F)cnn12` (stereo in doubt) [I-124, N-((1R,2S)-2-fluorocyclopropyl)-7-(methylamino)-5-((1-(2-methylpyrimidin-4-yl)-2-oxo-1,2-dihydropyridin-3-yl)amino)pyrazolo[1,5-a]pyrimidine-3-carboxamide], the Kd in test [1] was less than 0.2 nM. Further, the inhibition at 10 µM at Tyk2 kinase domain (DH1) and on JAK2 kinase domain (JH1) was less than 50% in each case. Besides, the IC50 in test [2] is less than 100 nM; in test [3] it was more than 12500 nM.
The compound `CNc1cc(Nc2cccn(-c3ncco3)c2=O)nc2c(C(=O)N[C@H]3C[C@H]3F)cnn12` [I-716] yielded a Kd in test [1] of less than 0.2 nM. Moreover, the inhibition at 10 µM on Tyk2 kinase domain (DH1) and on JAK2 kinase domain (JH1) was less than 50% each time. The IC50 in test [2] was less than 100 nM; in test [3] it was more than 2500 nM.
As for `CNc1cc(-c2cn(C(C)C)c3ncc(C)cc23)nc2c(C(N)=O)cnn12` [I-255], the Kd in test [1] is less than 0.2 nM. The inhibition at 10 µM at Tyk2 kinase domain (DH1) and at JAK2 kinase domain (JH1) was less than 50% throughout. Moreover, the IC50 in test [2] is less than 100 nM; in test [3], more than 50000 nM.
As to `CNc1cc(Nc2cccn(-c3cnc(C(=O)N(C)C)cn3)c2=O)nc2c(C(=O)NC3CCC3)cnn12` [I-122], in test [1], the Kd was less than 0.2 nM. The inhibition at 10 µM at Tyk2 kinase domain (DH1) and on JAK2 kinase domain (JH1) was less than 50% each time. In addition, the IC50 in test [2] is less than 100 nM; in test [3], more than 2500 nM.
